Reference: BindingDB's records for doi:10.1016/S0960-894X(01)80136-0 (1994)

Test: Apparent inhibition constant of the FKBP […] isomerase (PPIase) activity

SMILES | Ki [µM]
CC1(C)COC(=O)CCCCCCCCCCC(CCC2CCCCC2)OC(=O)C2CCCCN2C(=O)C1=O (stereo not given) [21-(2-Cyclohexyl-ethyl)-7,7-dimethyl-hexadecahydro-9,22-dioxa-4a-aza-benzocyclohenicosene-5,6,10,23-tetraone] | 190
CC1(C)COC(=O)CCCCCCCCCOC(=O)[C@@H]2CCCCN2C(=O)C1=O | 30
CC1(C)COC(=O)CCCOC(=O)C2CCCCN2C(=O)C1=O (stereo not given) [7,7-Dimethyl-octahydro-9,14-dioxa-4a-aza-benzocyclotridecene-5,6,10,15-tetraone] | 2900

Results, then the compound that gave them:

Ki [µM] | SMILES
11000 | CC1(C)COC(=O)CCCCCCCCCCCCCCCOC(=O)C2CCCCN2C(=O)C1=O (stereo not given) [7,7-Dimethyl-icosahydro-9,26-dioxa-4a-aza-benzocyclopentacosene-5,6,10,27-tetraone]
90 | CC1(C)COC(=O)CCCCCCCCCOC(=O)C2CCCCN2C(=O)C1=O (stereo not given) [7,7-Dimethyl-tetradecahydro-9,20-dioxa-4a-aza-benzocyclononadecene-5,6,10,21-tetraone]
